Laboratory results as given in ChEMBL document CHEMBL1150413, “A series of potent and selective, triazolylphenyl-based histone deacetylases inhibitors with activity against pancreatic cancer cells and Plasmodium falciparum” (J Med Chem, 2008).

Columns and labels:
[1] = Cytotoxicity against human Panc 04.03 cells after 72 hrs by MTT assay; format: functional, cell-based; settings: Panc 04.03, 72 h
[2] = biological target: T1, Polyamine deacetylase HDAC10 (Homo sapiens, UniProt Q969S8)
T1 sequence (Q969S8 whole entry): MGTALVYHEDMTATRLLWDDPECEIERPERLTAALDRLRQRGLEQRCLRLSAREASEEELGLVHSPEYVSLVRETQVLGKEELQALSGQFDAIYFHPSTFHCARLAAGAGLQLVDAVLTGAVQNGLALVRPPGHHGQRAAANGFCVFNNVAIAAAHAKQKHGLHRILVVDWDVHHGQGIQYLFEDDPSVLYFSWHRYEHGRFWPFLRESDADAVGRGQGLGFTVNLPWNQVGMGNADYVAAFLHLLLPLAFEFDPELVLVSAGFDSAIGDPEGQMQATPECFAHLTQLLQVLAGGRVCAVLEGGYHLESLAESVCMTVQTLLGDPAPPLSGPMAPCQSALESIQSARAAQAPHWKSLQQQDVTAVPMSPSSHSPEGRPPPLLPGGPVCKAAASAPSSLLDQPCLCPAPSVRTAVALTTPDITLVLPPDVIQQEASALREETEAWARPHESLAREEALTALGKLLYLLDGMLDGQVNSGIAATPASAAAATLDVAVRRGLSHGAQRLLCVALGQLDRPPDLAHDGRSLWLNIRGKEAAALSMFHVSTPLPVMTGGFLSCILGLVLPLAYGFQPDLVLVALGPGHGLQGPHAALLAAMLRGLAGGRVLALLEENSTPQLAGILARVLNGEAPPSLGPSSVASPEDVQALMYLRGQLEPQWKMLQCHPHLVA

[3] = biological target: T2, Protein deacetylase HDAC6 (Homo sapiens, UniProt Q9UBN7)
T2 sequence (Q9UBN7 whole entry): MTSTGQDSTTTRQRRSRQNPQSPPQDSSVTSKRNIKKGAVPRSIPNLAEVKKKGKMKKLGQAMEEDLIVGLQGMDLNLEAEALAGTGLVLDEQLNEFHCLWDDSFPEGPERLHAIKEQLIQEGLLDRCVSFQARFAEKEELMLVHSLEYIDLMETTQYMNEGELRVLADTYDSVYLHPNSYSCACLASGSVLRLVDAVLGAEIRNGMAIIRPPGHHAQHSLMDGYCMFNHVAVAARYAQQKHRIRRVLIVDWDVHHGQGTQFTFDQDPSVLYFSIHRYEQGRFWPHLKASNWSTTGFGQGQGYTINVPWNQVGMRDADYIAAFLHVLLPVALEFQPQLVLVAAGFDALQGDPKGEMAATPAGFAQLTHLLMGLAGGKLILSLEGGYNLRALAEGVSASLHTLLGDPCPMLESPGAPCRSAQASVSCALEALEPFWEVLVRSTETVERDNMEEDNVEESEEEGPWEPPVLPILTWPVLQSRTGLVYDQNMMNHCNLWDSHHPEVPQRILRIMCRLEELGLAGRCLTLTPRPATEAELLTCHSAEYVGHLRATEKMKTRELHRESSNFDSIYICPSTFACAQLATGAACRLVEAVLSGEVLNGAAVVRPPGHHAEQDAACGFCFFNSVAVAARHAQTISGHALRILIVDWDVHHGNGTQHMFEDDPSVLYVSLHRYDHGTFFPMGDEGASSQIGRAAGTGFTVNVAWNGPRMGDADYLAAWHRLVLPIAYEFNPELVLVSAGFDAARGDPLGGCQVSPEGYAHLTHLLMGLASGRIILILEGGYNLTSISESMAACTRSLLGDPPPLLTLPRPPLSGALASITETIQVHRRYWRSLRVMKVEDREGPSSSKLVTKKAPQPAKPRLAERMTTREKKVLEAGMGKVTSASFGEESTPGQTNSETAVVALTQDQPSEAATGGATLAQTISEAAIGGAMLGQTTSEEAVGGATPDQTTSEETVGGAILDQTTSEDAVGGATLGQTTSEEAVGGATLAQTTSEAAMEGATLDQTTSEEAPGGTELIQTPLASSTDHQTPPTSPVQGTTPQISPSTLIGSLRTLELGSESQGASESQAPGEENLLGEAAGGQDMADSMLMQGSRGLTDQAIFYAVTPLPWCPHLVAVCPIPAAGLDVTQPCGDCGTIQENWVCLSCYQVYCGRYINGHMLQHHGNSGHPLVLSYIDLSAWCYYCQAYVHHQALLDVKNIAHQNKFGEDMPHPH

[4] = test system: Plasmodium falciparum; assay: Antimalarial activity against Plasmodium falciparum D6 by hypoxanthine uptake; format: functional, organism-based
[5] = test system: Plasmodium falciparum; assay: Antimalarial activity against Plasmodium falciparum TM90C2A by hypoxanthine uptake; format: functional, organism-based
[6] = biological target: Histone deacetylase 1 (Homo sapiens, UniProt Q13547)
Sequence of Histone deacetylase 1 (Q13547 whole entry): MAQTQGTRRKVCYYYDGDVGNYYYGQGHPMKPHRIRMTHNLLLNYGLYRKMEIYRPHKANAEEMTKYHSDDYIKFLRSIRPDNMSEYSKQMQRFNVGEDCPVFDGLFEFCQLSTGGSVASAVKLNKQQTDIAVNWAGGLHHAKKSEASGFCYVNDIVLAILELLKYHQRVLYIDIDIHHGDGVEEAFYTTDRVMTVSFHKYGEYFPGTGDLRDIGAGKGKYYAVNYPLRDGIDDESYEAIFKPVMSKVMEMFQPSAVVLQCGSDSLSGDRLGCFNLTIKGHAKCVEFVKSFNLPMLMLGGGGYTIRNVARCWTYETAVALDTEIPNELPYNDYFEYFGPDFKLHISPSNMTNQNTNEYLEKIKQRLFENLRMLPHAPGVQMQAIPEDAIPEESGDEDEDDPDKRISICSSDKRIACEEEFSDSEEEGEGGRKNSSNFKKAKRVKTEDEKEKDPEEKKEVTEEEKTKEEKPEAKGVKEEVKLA

[7] = biological target: Histone deacetylase 2 (Homo sapiens, UniProt Q92769)
Sequence of Histone deacetylase 2 (Q92769 whole entry): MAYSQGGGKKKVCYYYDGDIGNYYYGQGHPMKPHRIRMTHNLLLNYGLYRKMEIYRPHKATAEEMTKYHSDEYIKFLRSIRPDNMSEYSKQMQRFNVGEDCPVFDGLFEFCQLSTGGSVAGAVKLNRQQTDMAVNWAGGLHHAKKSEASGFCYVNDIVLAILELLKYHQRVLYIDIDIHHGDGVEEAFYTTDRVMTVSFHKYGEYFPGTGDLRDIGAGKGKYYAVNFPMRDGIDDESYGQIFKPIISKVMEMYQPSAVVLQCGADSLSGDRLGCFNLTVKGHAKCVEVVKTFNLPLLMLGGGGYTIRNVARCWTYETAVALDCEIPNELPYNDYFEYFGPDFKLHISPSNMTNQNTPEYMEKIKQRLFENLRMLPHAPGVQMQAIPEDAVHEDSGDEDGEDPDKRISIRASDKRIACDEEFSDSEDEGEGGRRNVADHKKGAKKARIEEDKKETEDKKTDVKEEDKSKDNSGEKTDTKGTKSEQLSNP

[8] = Cytotoxicity against human HPDE6c7 cells; format: ADME, cell-based
[9] = test system: Plasmodium falciparum; assay: microbe, parasite or virus in culture; settings: TM91C235
Description: Antimalarial activity against Plasmodium falciparum TM91C235 by hypoxanthine uptake

[10] = test system: Plasmodium falciparum; assay: Antimalarial activity against Plasmodium falciparum W2 by hypoxanthine uptake; format: functional, organism-based
[11] = Cytotoxicity against nontransformed human microvascular epithelial cells; format: ADME, cell-based; settings: Endothelial cell
[12] = biological target: T3, Histone deacetylase 8 (Homo sapiens, UniProt Q9BY41)
T3 sequence (Q9BY41 whole entry): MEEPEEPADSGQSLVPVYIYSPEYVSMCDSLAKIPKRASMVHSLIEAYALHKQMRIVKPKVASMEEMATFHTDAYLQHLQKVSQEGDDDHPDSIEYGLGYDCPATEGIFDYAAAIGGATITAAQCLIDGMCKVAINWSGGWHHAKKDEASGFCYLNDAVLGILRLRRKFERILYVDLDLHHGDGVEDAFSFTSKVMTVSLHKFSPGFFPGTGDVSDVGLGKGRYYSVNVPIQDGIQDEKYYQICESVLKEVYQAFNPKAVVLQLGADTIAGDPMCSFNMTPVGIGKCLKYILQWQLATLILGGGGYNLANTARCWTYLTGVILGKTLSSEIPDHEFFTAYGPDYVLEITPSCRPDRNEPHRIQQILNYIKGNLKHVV

[13] = Cytotoxicity against human Hup T3 cells after 72 hrs by MTT assay; format: functional, cell-based; settings: HuP-T3, 72 h
[14] = Selectivity for HDAC10 over HDAC1
[15] = test system: BXPC-3; assay: Cytotoxicity against human BxPC3 cells after 72 hrs by MTT assay; format: functional, cell-based; settings: BXPC-3, 72 h
[16] = Cytotoxicity against human SU 86.86 cells after 72 hrs by MTT assay; format: functional, cell-based; settings: SU.86.86, 72 h
[17] = test system: MIA PaCa-2; assay: Cytotoxicity against human Mia Paca2 cells after 72 hrs by MTT assay; format: functional, cell-based; settings: MIA PaCa-2, 72 h
[18] = biological target: Histone deacetylase 3 (Homo sapiens, UniProt O15379)
Sequence of Histone deacetylase 3 (O15379 whole entry): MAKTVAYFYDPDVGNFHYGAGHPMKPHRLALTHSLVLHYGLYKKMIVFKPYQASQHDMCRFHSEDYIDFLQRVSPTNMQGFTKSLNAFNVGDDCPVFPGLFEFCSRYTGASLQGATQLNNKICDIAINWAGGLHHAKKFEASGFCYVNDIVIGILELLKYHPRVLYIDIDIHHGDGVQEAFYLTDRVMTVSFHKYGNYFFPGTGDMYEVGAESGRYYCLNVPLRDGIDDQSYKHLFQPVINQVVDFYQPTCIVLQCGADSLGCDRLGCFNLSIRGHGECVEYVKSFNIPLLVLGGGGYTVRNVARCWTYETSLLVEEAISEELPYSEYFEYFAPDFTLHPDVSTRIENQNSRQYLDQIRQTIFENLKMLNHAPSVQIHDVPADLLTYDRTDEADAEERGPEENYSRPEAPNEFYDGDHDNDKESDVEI

SMILES | IC50 [1] [nM] | IC50 [2] [nM] | IC50 [3] [nM] | IC50 [4] [nM] | IC50 [5] [nM] | IC50 [6] [nM] | IC50 [7] [nM] | IC50 [8] [nM] | IC50 [9] [nM] | IC50 [10] [nM] | IC50 [11] [nM] | IC50 [12] [nM] | IC50 [13] [nM] | Ratio IC50 [14] | IC50 [15] [nM] | IC50 [16] [nM] | IC50 [17] [nM] | IC50 [18] [nM]
O=C(CCCCCCC(=O)Nc1cccc(-c2cn(-c3ccccc3)nn2)c1)NO | < 500 | 27.7 | 9.6 | 17 | 17 | 18 | 63.9 | < 200 | 35 | 32 | < 1000 | 2780 | – | – | – | – | – | –
O=C(CCCCCCC(=O)Nc1ccc(-c2cn(-c3ccccc3)nn2)cc1)NO | 1000 | 36.1 | 1.3 | – | – | 27.1 | 47.5 | 1000 | – | – | 1000 | 1970 | 1000 | 0.8 | 3000 | 1000 | 400 | 8
O=C(CCCCCCC(=O)Nc1cccc(-c2cnnn2-c2ccccc2)c1)NO | 2000 | 24.5 | 7.5 | 320 | 330 | 33.4 | 167 | – | 500 | 730 | – | 942 | 8000 | 1.4 | 10000 | 4000 | 3000 | 7.7
O=C(CCCCCCC(=O)Nc1cccc(-c2cn(Cc3ccc(F)cc3)nn2)c1)NO | 1000 | 34.3 | 2.6 | 180 | 110 | 17.6 | 77.4 | 500 | 280 | 350 | < 1000 | 552 | 1000 | 0.5 | 1000 | 1000 | 300 | 4
